# Patent US8592420B2, “Method of treating an anxiety disorder” (Kyowa Hakko Kirin Co., Ltd., priority 2003, dated 2013)
# Columns and labels:
# Type in all cases: in vivo
# [1] = tested on: Male Wistar rats; assay: Vogel Conflict Test in the rat (Test Example 10); settings: Table 7; 1 mg/kg po 60 min before test; 5 minutes punished session; vehicle 4.8 ± 1.3 (for C), 5.7 ± 0.8 (for D)
# Procedure: The method followed that described in Psychopharmacol., 21, 1-7 (1971) with a slight modification. Male Wistar rats (160-200 g) were deprived of water for 48 hours prior to test session consisting of a 5 minutes period. Each rat was then placed in a test box (25×30×25 cm). The rat was allowed to explore the drinking spout to drink water. When the rat drinks a drip of water, the electric shock (0.16 mA, duration of 0.2 seconds) was delivered from the floor grid. […] The test compound or a vehicle was administered orally 60 minutes before the test, respectively. Data were analyzed by comparing the result of a tested group with that of a vehicle control group using an unpaired Student's t-test.
# [2] = tested on: rat; assay: Elevated Plus-Maze Test in the rat (Test Example 4)
# Procedure: (§1) The method followed that described in Naunyn. Schmied. Arch. Pharmacol., 327, 1-5 (1984) with a slight modification.
# (§2) The maze consisted of 4 arms of equal length and width (50×10 cm) arranged in the form of a plus sign (+). Two opposite arms were enclosed by 40 cm high walls (closed arms). The 2 other arms had no walls (open arms). The maze was raised 50 cm above the floor. A rat was placed in the center of the plus-maze and left to explore for 5 minutes. The number of entries into the open and closed arms and the time spent in the open arms was recorded.
# The test compound or vehicle was administered orally 60 minutes before the test, respectively.
# (§3) Data were analyzed by comparing the result of a treated group with that of a vehicle control group using an unpaired Student's t-test.
# [3] = tested on: Mice; assay: Marble Burying Test in the mouse (Test Example 2)
# Procedure: (§4) The method followed that described in Eur. J. Pharmacol., 126, 223-229 (1986) with a slight modification.
# (§5) Mice exposed to a novel object (marbles) tend to bury them in the sawdust floor covering.
# (§6) Mice were individually placed in transparent plastic cages with 25 colored marbles (diameter 1.5 cm) on 5 cm of the sawdust floor. The cage was covered with a similar cage upturned.
# (§7) The number of marbles covered by sawdust (50% or more) was counted at the end of a 30 minute test.
# (§8) The test compound or vehicle was administered orally 60 minutes before the test.
# Data were analyzed by comparing the result of treated groups with that of a vehicle control group using an unpaired Student's t-test.
# [4] = tested on: male rats; assay: Social Interaction Test in the rat (Test Example 5)
# Procedure: The method followed that described in Br. J. Pharmacol., 62, 19-24 (1978) with a slight modification.
# A pair of male rats were placed in opposite corners of an open-topped arena (50×50×50 cm) and allowed to interact with each other. The time spent in active social interaction (i.e. sniffing, following, grooming, mounting, crawling under or over the partner) was recorded for a 10 minute session.
# The test compound or vehicle was administered orally 60 minutes before the test, with each rat of the same pair receiving the same treatment.
# Data were analyzed by comparing the result of a treated group with that of a vehicle control group using an unpaired Student's t-tests.
# [5] = tested on: Mice; assay: Hole-Board Test in the mouse (Test Example 1)
# Procedure: The method followed that described in Arch. Int. Pharmacodyn. Ther., 147, 372-387 (1964) with a slight modification.
# Mice were individually placed on a square board (35×35 cm) raised 60 cm above the floor, containing 16 equally spaced holes (25 mm diameter). The number of head-dips occurring during a 5 minute test was counted.
# as §8
# Data were analyzed by comparing the result of a tested group with that of a vehicle control group using an unpaired Student's t-test.
# [6] = tested on: rat; assay: Elevated Plus-Maze Test in the rat, adjunctive treatment with alprazolam (Test Example 8); settings: for OPEN ARMS NUMBER OF ENTRIES % change from control / OPEN ARMS TIME SPENT % change from control / OPEN ARMS NUMBER OF ENTRIES mean ± s.e.m. / OPEN ARMS TIME SPENT (sec) mean ± s.e.m.: Table 6; for OPEN ARMS NUMBER OF ENTRIES % change from control / OPEN ARMS TIME SPENT % change from control: single compound 1 mg/kg po; for OPEN ARMS NUMBER OF ENTRIES mean ± s.e.m. / OPEN ARMS TIME SPENT (sec) mean ± s.e.m.: single compound 1 mg/kg po 60 min before test; for OPEN ARMS NUMBER OF ENTRIES mean ± s.e.m.: vehicle 2.3 ± 0.6; for OPEN ARMS TIME SPENT (sec) mean ± s.e.m.: vehicle 37.4 ± 9.5; for effect alone on open arm entries and time spent in open arms: alone at 1 mg/kg po
# Procedure: as §1, §2
# The test compound or vehicle was administered orally 60 minutes before the test either alone or in combination with alprazolam.
# as §3
# [7] = tested on: Mice; assay: Marble Burying Test in the mouse, adjunctive treatment with buspirone or fluoxetine (Test Example 7); settings: for NUMBER OF MARBLES COVERED BY SAWDUST % change from control / NUMBER OF MARBLES COVERED BY SAWDUST mean ± s.e.m.: Table 5; for NUMBER OF MARBLES COVERED BY SAWDUST mean ± s.e.m.: 60 min before test, vehicle 17.1 ± 1.6; for effect of single administration on number of marbles covered by sawdust: single administration: Compound A 1 mg/kg, buspirone 15 mg/kg, fluoxetine 20 mg/kg, po
# Procedure: as §4, §5, §6, §7
# The test compound or vehicle was administered orally 60 minutes before the test either alone or in combination with buspirone or fluoxetine.
# as §3
# [8] = tested on: rat; assay: Learned Helplessness in the rat (Test Example 3); settings: FIG. 1, single treatment p.o. 60 min before test
# Procedure: The method followed that described in J. Exp. Psychol., 74, 1-9 (1967) with a slight modification.
# Preconditioning with inescapable electric foot shock was given individually to each rat in the shuttle box on day 1. A constant current (1.3 mA) shock generator delivered scrambled, inescapable shocks to the grid floor during 50 minute preconditioning period. Control rats were also individually placed in the identical chamber for 50 minutes, but shock was not given. Conditioned avoidance training session (FR1: buzzer 10 seconds, 0.6 mA foot shock; 5 seconds, interval time; 10 seconds/trial, 15 escape trials) and test session (FR2: 0.6 mA foot shock; 10 seconds, interval time; 0.5 seconds, 0.6 mA foot shock; 10 seconds, interval time; 15 seconds/trial, 15 trials) were performed on day 2 consecutively. FR1 session consisted of 15 trials during which a single shuttle response terminated shock and rats learned how to escape shocks. Subsequent FR2 session consisted of 15 trials during which each rat had to cross from one side of the shuttle box to the other and then crossed back to terminate shock. […]
# The ratio of escape response was calculated from the following formula. […]
# The ratio of intertrial response is calculated from the following formula. […]
# Data were analyzed by comparing the result of a tested group with that of a vehicle control group using a Steel test.
smiles,measurement,setting,value
"CC(C)(O)CCN1CCN(c2cc3nc(-c4ccco4)nn3c(N)n2)CC1 [Compound C, 5-amino-2-(2-furyl)-7-[4-(3-hydroxy-3-methylbutyl)piperazinyl][1,2,4]triazolo[1,5-c]pyrimidine]",NUMBER OF SHOCKS mean ± s.e.m,[1],10.5 ± 2.1
same,OPEN ARMS NUMBER OF ENTRIES mean ± s.e.m.,"[2]; Table 3-C, 30 mg/kg po 60 min before test, vehicle 2.3 ± 0.5, p 0.0503",4.2 ± 0.8
same,OPEN ARMS TIME SPENT (sec) mean ± s.e.m.,"[2]; Table 3-C, 30 mg/kg po 60 min before test, vehicle 26.4 ± 6.6",55.2 ± 10.7 s
same,NUMBER OF MARBLES COVERED BY SAWDUST % change from control,"[3]; Table 2-C, 10 mg/kg p.o. 60 min before test, p 0.08",−17%
same,NUMBER OF MARBLES COVERED BY SAWDUST mean ± s.e.m.,"[3]; Table 2-C, 10 mg/kg p.o. 60 min before test, vehicle 20.9 ± 1.1, p 0.08",17.0 ± 1.6
same,TIME SPENT IN ACTIVE SOCIAL INTERACTION (sec) mean ± s.e.m.,"[4]; Table 4-C, 30 mg/kg po 60 min before test, vehicle 96.2 ± 8.2",130 ± 9.7 s
same,NUMBER OF HEAD-DIPS mean ± s.e.m.,"[5]; Table 1-C, 10 mg/kg p.o. 60 min before test, vehicle 30.2 ± 3.9",46.9 ± 3.4
"Cc1nnc2n1-c1ccc(Cl)cc1C(c1ccccc1)=NC2 [alprazolam, reference compound]",OPEN ARMS NUMBER OF ENTRIES % change from control,[6],+91%
same,OPEN ARMS TIME SPENT % change from control,[6],+53%
same,OPEN ARMS NUMBER OF ENTRIES mean ± s.e.m.,[6],4.4 ± 0.9
same,OPEN ARMS TIME SPENT (sec) mean ± s.e.m.,[6],57.3 ± 12.8 s
same,effect alone on open arm entries and time spent in open arms,[6],moderate effect
"COCCOc1ccc(N2CCN(CCn3ncc4c3nc(N)n3nc(-c5ccco5)nc43)CC2)cc1 [Compound D, 5-amino-2-(2-furyl)-7-(2-{4-[4-(2-methoxyethoxy)phenyl]piperazinyl}ethyl)pyrazolo[4,3-e]-1,2,4-triazolo[1,5-c]pyrimidine]",NUMBER OF SHOCKS mean ± s.e.m,[1],10.8 ± 1.6
O=C1CC2(CCCC2)CC(=O)N1CCCCN1CCN(c2ncccn2)CC1 [buspirone],NUMBER OF MARBLES COVERED BY SAWDUST % change from control,[7]; buspirone 15 mg/kg po alone,−26%
same,NUMBER OF MARBLES COVERED BY SAWDUST mean ± s.e.m.,[7]; buspirone 15 mg/kg po alone,12.7 ± 1.8
same,effect of single administration on number of marbles covered by sawdust,[7],no significant effects
"COc1cc(/C=C/c2nc3c(c(=O)n(C)c(=O)n3C)n2C)cc(OC)c1OC [Compound B, (E)-1,3,7-trimethyl-8-(3,4,5-trimethoxystyryl)xanthine]",OPEN ARMS NUMBER OF ENTRIES mean ± s.e.m.,"[2]; Table 3-B, 1 mg/kg po 60 min before test, vehicle 1.8 ± 0.8",5.8 ± 0.8
same,OPEN ARMS TIME SPENT (sec) mean ± s.e.m.,"[2]; Table 3-B, 1 mg/kg po 60 min before test, vehicle 15.6 ± 8.1",94.4 ± 15.2 s
same,NUMBER OF MARBLES COVERED BY SAWDUST % change from control,"[3]; Table 2-B, 3 mg/kg p.o. 60 min before test",−55%
same,NUMBER OF MARBLES COVERED BY SAWDUST mean ± s.e.m.,"[3]; Table 2-B, 3 mg/kg p.o. 60 min before test, vehicle 20.6 ± 1.1",9.3 ± 1.9
same,TIME SPENT IN ACTIVE SOCIAL INTERACTION (sec) mean ± s.e.m.,"[4]; Table 4-B, 3 mg/kg po 60 min before test, vehicle 89.0 ± 5.7",141 ± 6.8 s
same,NUMBER OF HEAD-DIPS mean ± s.e.m.,"[5]; Table 1-B, 3 mg/kg p.o. 60 min before test, vehicle 30.2 ± 3.9",43.9 ± 4.2
"CCn1c(=O)c2c(nc(/C=C/c3ccc(OC)c(OC)c3)n2C)n(CC)c1=O [Compound A, (E)-8-(3,4-dimethoxystyryl)-1,3-diethyl-7-methylxanthine]","escape failure (ratio of escape response, FR2 trial)",[8]; 1.25 mg/kg and more,dose-dependently reversed the escape failure
same,"intertrial crossings (ratio of intertrial response, FR2 trial)",[8],did not increase intertrial crossings
same,OPEN ARMS NUMBER OF ENTRIES % change from control,[6],+65%
same,OPEN ARMS TIME SPENT % change from control,[6],+48%
same,OPEN ARMS NUMBER OF ENTRIES mean ± s.e.m.,[6],3.8 ± 0.8
same,OPEN ARMS TIME SPENT (sec) mean ± s.e.m.,[6],55.2 ± 12.1 s
same,effect alone on open arm entries and time spent in open arms,[6],moderate effect
same,OPEN ARMS NUMBER OF ENTRIES mean ± s.e.m.,"[2]; Table 3-A, 3 mg/kg po 60 min before test, 5 minutes, vehicle 1.9 ± 0.3",5.4 ± 0.7
same,OPEN ARMS TIME SPENT (sec) mean ± s.e.m.,"[2]; Table 3-A, 3 mg/kg po 60 min before test, vehicle 38.9 ± 7.7",143 ± 20.9 s
same,NUMBER OF MARBLES COVERED BY SAWDUST % change from control,"[3]; Table 2-A, 3 mg/kg p.o. 60 min before test",−50%
same,NUMBER OF MARBLES COVERED BY SAWDUST mean ± s.e.m.,"[3]; Table 2-A, 3 mg/kg p.o. 60 min before test, 30 minute test, 25 marbles, vehicle 20.9 ± 1.4",10.5 ± 2.9
same,TIME SPENT IN ACTIVE SOCIAL INTERACTION (sec) mean ± s.e.m.,"[4]; Table 4-A, 3 mg/kg po 60 min before test, 10 minute session, vehicle 97.5 ± 8.7",153 ± 11.2 s
same,NUMBER OF MARBLES COVERED BY SAWDUST % change from control,[7]; Compound A 1 mg/kg po alone,−18%
same,NUMBER OF MARBLES COVERED BY SAWDUST mean ± s.e.m.,[7]; Compound A 1 mg/kg po alone,14.1 ± 1.6
same,effect of single administration on number of marbles covered by sawdust,[7],no significant effects
same,NUMBER OF HEAD-DIPS mean ± s.e.m.,"[5]; Table 1-A, 3 mg/kg p.o. 60 min before test, 5 minute test, vehicle 28.6 ± 2.4",46.7 ± 3.2
same,NUMBER OF ENTRIES INTO THE 4 QUADRANTS mean ± s.e.m.,"[5]; Table 1-A, 3 mg/kg p.o. 60 min before test, vehicle 12.7 ± 0.8",24.4 ± 1.7
CNCCC(Oc1ccc(C(F)(F)F)cc1)c1ccccc1 (stereo not drawn) [fluoxetine],NUMBER OF MARBLES COVERED BY SAWDUST % change from control,[7]; fluoxetine 20 mg/kg po alone,−20%
same,NUMBER OF MARBLES COVERED BY SAWDUST mean ± s.e.m.,[7]; fluoxetine 20 mg/kg po alone,13.6 ± 2.5
same,effect of single administration on number of marbles covered by sawdust,[7],no significant effects
